Data on 25 molecules can be found in patent publication US20200270237A1 (priority 2017, published 2020).

Like-named read-outs stand apart in the source and are kept apart here. Bounds are passed on as bounds.

The test deals with Human α2δ-1 Subunit of Cav2.2 Calcium Channel (Homo sapiens, UniProt P54289). In words: biochemical. In kind it is binding.
Where [1] appears, read: read-out: Ki (nM) alpha2delta Hum.
Where [2] appears, read: Table 1, human α2δ-1 enriched membranes, 15 nM [3H]-Gabapentin, read-out: Ki (nM) alpha2delta Hum.
The mark [3] stands for this setting: Table 2 (dual compounds), human α2δ-1 enriched membranes, 15 nM [3H]-Gabapentin, read-out: Ki (nM) alpha2delta Hum.

Human α2δ-1 Subunit of Cav2.2 Calcium Channel, sequence (P54289 25-1103): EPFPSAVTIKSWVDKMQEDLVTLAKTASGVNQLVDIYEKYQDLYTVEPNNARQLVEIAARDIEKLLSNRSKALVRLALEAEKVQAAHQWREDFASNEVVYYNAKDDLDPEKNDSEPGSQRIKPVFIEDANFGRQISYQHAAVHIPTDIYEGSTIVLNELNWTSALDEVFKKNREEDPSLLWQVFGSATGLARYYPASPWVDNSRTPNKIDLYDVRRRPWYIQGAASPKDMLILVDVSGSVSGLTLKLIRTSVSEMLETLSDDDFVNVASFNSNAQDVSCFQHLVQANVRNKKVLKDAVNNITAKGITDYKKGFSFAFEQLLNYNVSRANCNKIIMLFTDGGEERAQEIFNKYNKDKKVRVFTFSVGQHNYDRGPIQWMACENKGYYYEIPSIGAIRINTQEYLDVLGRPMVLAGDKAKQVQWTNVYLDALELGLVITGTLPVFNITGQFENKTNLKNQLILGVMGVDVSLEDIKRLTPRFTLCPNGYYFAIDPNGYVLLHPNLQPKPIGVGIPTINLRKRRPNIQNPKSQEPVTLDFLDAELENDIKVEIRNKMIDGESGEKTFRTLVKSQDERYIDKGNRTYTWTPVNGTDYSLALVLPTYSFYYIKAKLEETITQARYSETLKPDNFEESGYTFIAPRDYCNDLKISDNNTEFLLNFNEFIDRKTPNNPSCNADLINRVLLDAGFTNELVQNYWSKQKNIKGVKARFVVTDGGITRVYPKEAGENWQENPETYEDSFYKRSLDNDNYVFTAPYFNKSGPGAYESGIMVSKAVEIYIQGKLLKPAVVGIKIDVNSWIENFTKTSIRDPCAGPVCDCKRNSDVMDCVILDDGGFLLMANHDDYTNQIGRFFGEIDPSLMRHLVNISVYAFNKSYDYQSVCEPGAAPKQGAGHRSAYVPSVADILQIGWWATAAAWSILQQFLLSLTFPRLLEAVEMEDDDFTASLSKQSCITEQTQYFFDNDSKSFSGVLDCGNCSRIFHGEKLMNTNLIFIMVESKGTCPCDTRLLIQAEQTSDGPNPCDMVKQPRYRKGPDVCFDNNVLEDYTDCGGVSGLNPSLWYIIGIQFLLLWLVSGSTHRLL

In the case of `CNCC[C@@H](Oc1cccc(CN2CCC(c3ccccc3)(N(C)C)CC2)c1)c1cccs1` [Example 16, (R)-N,N-dimethyl-1-(3-(3-(methylamino)-1-(thiophen-2-yl)propoxy)benzyl)-4-phenylpiperidin-4-amine], the Ki was 500 to 3000 nM.

In the case of `CNCC[C@@H](Oc1cccc(CN2CCC(c3cccc(O)c3)(N(C)C)CC2)c1)c1cccs1` [Example 17, (R)-3-(4-(dimethylamino)-1-(3-(3-(methylamino)-1-(thiophen-2-yl)propoxy)benzyl)piperidin-4-yl)phenol], the Ki was in the range of 100 to 500 nM.

As for `CNCC[C@H](Oc1cccc(CN2CCN([C@]3(C(=O)c4ccccn4)CCOC(C)(C)C3)CC2)c1)c1cccs1` [Example 18, ((R)-2,2-dimethyl-4-(4-(3-((S)-3-(methylamino)-1-(thiophen-2-yl)propoxy)benzyl)piperazin-1-yl)tetrahyrdro-2H-pyran-4-yl)(pyridin-2-yl)methanone], the Ki under setting [1] is more than 3000 nM.

`CNCC[C@H](Oc1cccc(CN2CCN([C@@]3(C(=O)c4ccccn4)CCOC(C)(C)C3)CC2)c1)c1cccs1` [Example 19, ((S)-2,2-dimethyl-4-(4-(3-((S)-3-(methylamino)-1-(thiophen-2-yl)propoxy)benzyl)piperazin-1-yl)tetrahydro-2H-pyran-4-yl)(pyridin-2-yl)methanone]: the Ki under setting [1] is more than 3000 nM.

Consider `CNCCC(OCc1cccc(CN2CCC(c3ccccc3)(N(C)C)CC2)c1)c1cccs1` (centres unmarked) [Example 20, N,N-dimethyl-1-(3-((3-(methylamino)-1-(thiophen-2-yl)propoxy)methyl)benzyl)-4-phenylpiperidin-4-amine], for which the Ki by setting is: under setting [2], 500 to 3000 nM; under setting [3], 500 to 3000 nM.

With `CNCC[C@H](OCc1cccc(CN2CCC(c3ccccc3)(N(C)C)CC2)c1)c1cccs1` [Example 21, (S)-N,N-dimethyl-1-(3-((3-(methylamino)-1-(thiophen-2-yl)propoxy)methyl)benzyl)-4-phenylpiperidin-4-amine], the Ki is, setting by setting: under setting [2], more than 3000 nM; under setting [3], more than 3000 nM.

For the molecule `CNCC[C@@H](OCc1cccc(CN2CCC(c3ccccc3)(N(C)C)CC2)c1)c1cccs1` [Example 22, (R)-N,N-dimethyl-1-(3-((3-(methylamino)-1-(thiophen-2-yl)propoxy)methyl)benzyl)-4-phenylpiperidin-4-amine], the Ki lay within 500 to 3000 nM under setting [2] and 500 to 3000 nM under setting [3].

`CNCC[C@H](OCc1cccc(CN2CCC(c3cccc(O)c3)(N(C)C)CC2)c1)c1cccs1` [Example 23, (S)-3-(4-(dimethylamino)-1-(3-((3-(methylamino)-1-(thiophen-2-yl)propoxy)methyl)benzyl)piperidin-4-yl)phenol]: the Ki was more than 3000 nM.

With `CNCC[C@@H](OCc1cccc(CN2CCC(c3cccc(O)c3)(N(C)C)CC2)c1)c1cccs1` [Example 24, (R)-3-(4-(dimethylamino)-1-(3-((3-(methylamino)-1-(thiophen-2-yl)propoxy)methyl)benzyl)piperidin-4-yl)phenol], the Ki is 500 to 3000 nM.

As to `CNCC[C@@H](OCc1cccc(CN2CCN([C@@]3(C(=O)c4ccccn4)CCOC(C)(C)C3)CC2)c1)c1ccccc1` [Example 28, ((S)-2,2-dimethyl-4-(4-(3-(((R)-3-(methylamino)-1-phenylpropoxy)methyl)benzyl)piperazin-1-yl)tetrahydro-2H-pyran-4-yl)(pyridin-2-yl)methanone], the Ki under setting [1] fell in the range of 500 to 3000 nM.

Turning to `CNCC[C@@H](OCc1cccc(CN2CCN([C@]3(C(=O)c4ccccn4)CCOC(C)(C)C3)CC2)c1)c1ccccc1` [Example 29, ((R)-2,2-dimethyl-4-(4-(3-(((R)-3-(methylamino)-1-phenylpropoxy)methyl)benzyl)piperazin-1-yl)tetrahydro-2H-pyran-4-yl)(pyridin-2-yl)methanone], under setting [1], the Ki was in the range of 500 to 3000 nM.

In the case of `CC[C@@]1(N2CCN(Cc3cccc(CO[C@H](CCNC)c4ccccc4)c3)CC2)CCOC(C)(C)C1` [Example 30, (R)-3-((3-((4-((R)-4-ethyl-2,2-dimethyltetrahydro-2H-pyran-4-yl)piperazin-1-yl)methyl)benzyl)oxy)-N-methyl-3-phenylpropan-1-amine], the Ki under setting [1] is more than 3000 nM.

As for `CC[C@]1(N2CCN(Cc3cccc(CO[C@H](CCNC)c4ccccc4)c3)CC2)CCOC(C)(C)C1` [Example 31, (R)-3-((3-((4-((S)-4-ethyl-2,2-dimethyltetrahydro-2H-pyran-4-yl)piperazin-1-yl)methyl)benzyl)oxy)-N-methyl-3-phenylpropan-1-amine], the Ki under setting [1] is 500 to 3000 nM.

Consider `CNCCC(Oc1cccc(N2CCCCC2=O)c1)c1ccccc1` (centres unmarked) [Example 33, 1-(3-(3-(Methylamino)-1-phenylpropoxy)phenyl)piperidin-2-one], for which, under setting [1], the Ki is more than 3000 nM.

Take `CNCCC(Oc1cccc(N2CCCCC2=O)c1)c1cccs1` (centres unmarked) [Example 34, 1-(3-(3-(Methylamino)-1-(thiophen-2-yl)propoxy)phenyl)piperidin-2-one]: under setting [1], the Ki is more than 3000 nM.

For the molecule `CNCCC(Oc1cccc(N2CCN(C)CC2)c1)c1ccccc1` (centres unmarked) [Example 35, N-methyl-3-(3-(4-methylpiperazin-1-yl)phenoxy)-3-phenylpropan-1-amine], under setting [1], the Ki is 500 to 3000 nM.

Take `CNCCC(Oc1cccc(N2CCN(C)CC2=O)c1)c1cccs1` (centres unmarked) [Example 36, 4-Methyl-1-(3-(3-(methylamino)-1-(thiophen-2-yl)propoxy)phenyl)piperazin-2-one]: under setting [1], the Ki is more than 3000 nM.

Consider `CNCCC(Oc1cccc(N2CCN(C)CC2)c1)c1cccs1` (centres unmarked) [Example 37, N-methyl-3-(3-(4-methylpiperazin-1-yl)phenoxy)-3-(thiophen-2-yl)propan-1-amine], for which the Ki under setting [1] fell in the range of 500 to 3000 nM.

As for `CNCCC(OCc1cccc(N2CCCCC2=O)c1)c1ccccc1` (centres unmarked) [Example 38, 1-(3-((3-(Methylamino)-1-phenylpropoxy)methyl)phenyl)piperidin-2-one], the Ki under setting [1] lay in the range of 500 to 3000 nM.

For `CNCCC(OCc1cccc(N2CCCCC2=O)c1)c1cccs1` (centres unmarked) [Example 39, 1-(3-((3-(Methylamino)-1-(thiophen-2-yl)propoxy)methyl)phenyl)piperidin-2-one], under setting [1], the Ki was in the range of 500 to 3000 nM.

Turning to `CNCCC(OCc1cccc(N2CCN(C)CC2)c1)c1ccccc1` (centres unmarked) [Example 40, N-methyl-3-((3-(4-methylpiperazin-1-yl)benzyl)oxy)-3-phenylpropan-1-amine], the Ki under setting [1] was in the range of 500 to 3000 nM.

On to `CNCCC(OCc1cccc(N2CCN(C)CC2=O)c1)c1ccccc1` (centres unmarked) [Example 41, 4-Methyl-1-(3-((3-(methylamino)-1-phenylpropoxy)methyl)phenyl)piperazin-2-one], for which, under setting [1], the Ki was more than 3000 nM.

Take `CNCCC(Oc1cccc(N2CCNCC2)c1)c1cccs1` (centres unmarked) [Example 42, N-methyl-3-(3-(piperazin-1-yl)phenoxy)-3-(thiophen-2-yl)propan-1-amine]: the Ki under setting [1] fell in the range of 500 to 3000 nM.

In the case of `CNCCC(Oc1cccc(N2CCC(c3ccccc3)(N(C)C)CC2)c1)c1cccs1` (centres unmarked) [Example 43, N,N-dimethyl-1-(3-(3-(methylamino)-1-(thiophen-2-yl)propoxy)phenyl)-4-phenylpiperidin-4-amine], the Ki runs as follows: under setting [2], 500 to 3000 nM; under setting [3], 500 to 3000 nM.

In the case of `CNCCC(Oc1cccc(N2C[C@@H](C)N[C@@H](C)C2)c1)c1cccs1` (stereo partly drawn) [Example 44, 3-(3-((3S,5R)-3,5-dimethylpiperazin-1-yl)phenoxy)-N-methyl-3-(thiophen-2-yl)propan-1-amine], the Ki was in the range of 100 to 500 nM.
